According to patent US20050245472A1, “Engineered rnai adenovirus silencing expression (erase) of dna reair proteins” (The Johns Hopkins University, priority 2003, published 2005):

Test system: DU 145 cells
Test: Clonogenic survival after ionizing radiation
Type: cell-based, human
Conditions: DU 145, 10 μM, one hour before and 24 hours after irradiation, vs DMSO

COC[C@H]1OC(=O)c2coc3c2[C@@]1(C)C1=C(C3=O)[C@@H]2CCC(=O)[C@@]2(C)C[C@H]1OC(C)=O [Wortmannin]
DRF, ionizing radiation: 1.4

O=c1cc(N2CCOCC2)oc2c(-c3ccccc3)cccc12 [LY294002]
DRF, ionizing radiation (DRF at 80% clonogenic cell killing): 1.1
